# Reference: publication PMC9945177, “Nature-Derived Epoxy Resin Monomers with Reduced Sensitizing Capacity—Isosorbide-Based Bis-Epoxides” (Chemical Research in Toxicology, 2023)
# Test: skin permeability, static Franz diffusion cells
# Assay type: in vitro ADME, pig
# Conditions: for permeation of epidermis: 6 h experiment, donor 0.1 mg/mL; for recovery at 6 h, 0.1 mg/mL: pig; for recovery at 6 h, 0.1 mg/mL / amount in receptor fluid after 6 h (%) / amount on/in skin (%) / recovery (%): w/w %; for recovery at 6 h, 0.1 mg/mL / recovery (%): sum of receptor compartment after 6 h and overnight skin extraction; for amount on/in skin (%): overnight skin extraction after 6 h
# Experimental: For the permeability experiments, ultra-performance liquid chromatography-electrospray ionization tandem mass spectroscopy (UPLC)-ESI-MS/MS analysis was carried out using a Xevo TQ-S micro triple quadrupole mass spectrometer equipped with an electrospray interface and coupled to an Acquity UPLC H-Class Plus system from Waters. Separation was achieved on an ACE Excel C18-PFP column (75 × 2.1 mm, 1.7 μm) from Advanced Chromatography Technologies Ltd. (Aberdeen, Scotland). Mobile phase A consisted of 0.1% formic acid and 5% acetonitrile in water, whereas mobile phase B consisted of 0.1% formic acid and 5% water in acetonitrile. The gradient program used was as follows: 20% B (0–2 min), 20–80% B (2–9 min), 80–95% B (9–9.1 min), 95% B (9.1–12 min), 95–20% B (12–12.1 min), 20% B (12.1–15 min). The flow rate was set to 0.3 mL/min and the injection volume was 2 μL. Analysis was performed in positive ionization mode using a Multiple Reaction Monitoring (MRM) method. The optimal parameters were capillary voltage 1.5 (kV), desolvation temperature 650 °C, desolvation gas 850 L/h, and cone 100 L/h.
# The Franz diffusion cell experiment was based on the OECD Test Guidelines.[35] Static Franz diffusion cells equipped with pig ex vivo epidermis were used to assess the permeability of isosorbide bis-epoxides 2 and 3. Freshly cut pig ears were received frozen and stored at −20 °C until used for permeability assessment. One day before the experiment, the ears were transferred at +4 °C and allowed to thaw. The ears were then washed, shaved, and carefully cut with a Watson Dermatome skin graft knife to obtain 0.1 mm pieces of the epidermis layer. The integrity of the skin (transparent and intact) was determined by ocular inspection. Thereafter, the epidermis layer was cut and positioned between the donor and receptor compartment of each Franz cell. The receptor compartments were filled with 5 mL of ethanol/PBS (1:1) and equipped with a small magnetic stir bar to ensure mixing while maintaining a constant temperature of the circulating water at 37 °C. To equilibrate the skin, the upper chamber was filled with 0.5 mL of ethanol/PBS (1:1) which was later removed and replaced with the donor solution (50 μL) containing either 2 or 3 (0.1 mg/mL) or DGEBA (0.1 mg/mL) used as a positive control. A procedural blank containing only 50 μL of ethanol/PBS (1:1) in the donor compartment was also included in the experimental setup. Samples of 100 μL were collected after 0–2 min, 1, 2, 3, 4, 5, and 6 h. At each timepoint, a sample aliquot was removed and 100 μL of ethanol/PBS (1:1) was added to the receptor compartment to keep the volume constant. After 6 h, the skin from each Franz cell was extracted overnight in 5 mL of ethanol/PBS (1,1). Triplicate experiments were performed for each compound. The obtained samples were analyzed with UPLC-ESI-MS/MS (see Figure S2 for parameters) and quantification was based on external calibration curves. The limit of quantification (LOQ) was determined by the analysis of the analyte at low concentration and was calculated as 10 times the signal-to-noise ratio.
# [1] = Extract: skin extracted overnight after 6 h
compound,measurement,setting,value
"O=C(OC1COC2C(OC(=O)c3ccc(CC4CO4)cc3)COC12)c1ccc(CC2CO2)cc1 [Compound 2, (3R,3aR,6S,6aR)-3,6-O-Bis[4-(3,4-epoxypropyl)benzoyl]-1,4:3,6-dianhydro-D-glucitol]",permeation of epidermis,,observed
same,Average (µM),[1],0.345 µM
same,Average (µg/ml),[1],0.161 µg/mL
same,Replicate 1,[1],0.203 µg/mL
same,Replicate 2,[1],0.139 µg/mL
same,Replicate 3,[1],0.141 µg/mL
same,"recovery at 6 h, 0.1 mg/mL",,48%
same,Average (µM),"receptor fluid, timepoint 0 h",0 µM
same,Average (µg/ml),"receptor fluid, timepoint 0 h",0 µg/mL
same,Replicate 1 (µg/ml),"receptor fluid, timepoint 0 h",< LOQ
same,Replicate 2 (µg/ml),"receptor fluid, timepoint 0 h",< LOQ
same,Replicate 3 (µg/ml),"receptor fluid, timepoint 0 h",< LOQ
same,Average (µM),"receptor fluid, timepoint 1 h",0.123 µM
same,Average (µg/ml),"receptor fluid, timepoint 1 h",0.0574 µg/mL
same,Replicate 1,"receptor fluid, timepoint 1 h",0.0637 µg/mL
same,Replicate 2,"receptor fluid, timepoint 1 h",0.0511 µg/mL
same,Average (µM),"receptor fluid, timepoint 2 h",0.490 µM
same,Average (µg/ml),"receptor fluid, timepoint 2 h",0.228 µg/mL
same,Replicate 1,"receptor fluid, timepoint 2 h",0.299 µg/mL
same,Replicate 2,"receptor fluid, timepoint 2 h",0.233 µg/mL
same,Replicate 3,"receptor fluid, timepoint 2 h",0.154 µg/mL
same,Average (µM),"receptor fluid, timepoint 3 h",0.669 µM
same,Average (µg/ml),"receptor fluid, timepoint 3 h",0.312 µg/mL
same,Replicate 1,"receptor fluid, timepoint 3 h",0.437 µg/mL
same,Replicate 2,"receptor fluid, timepoint 3 h",0.320 µg/mL
same,Replicate 3,"receptor fluid, timepoint 3 h",0.180 µg/mL
same,Average (µM),"receptor fluid, timepoint 4 h",0.796 µM
same,Average (µg/ml),"receptor fluid, timepoint 4 h",0.371 µg/mL
same,Replicate 1,"receptor fluid, timepoint 4 h",0.538 µg/mL
same,Replicate 2,"receptor fluid, timepoint 4 h",0.362 µg/mL
same,Replicate 3,"receptor fluid, timepoint 4 h",0.213 µg/mL
same,Average (µM),"receptor fluid, timepoint 5 h",0.721 µM
same,Average (µg/ml),"receptor fluid, timepoint 5 h",0.336 µg/mL
same,Replicate 1,"receptor fluid, timepoint 5 h",0.500 µg/mL
same,Replicate 2,"receptor fluid, timepoint 5 h",0.323 µg/mL
same,Replicate 3,"receptor fluid, timepoint 5 h",0.186 µg/mL
same,Average (µM),"receptor fluid, timepoint 6 h",0.679 µM
same,Average (µg/ml),"receptor fluid, timepoint 6 h",0.317 µg/mL
same,Replicate 1,"receptor fluid, timepoint 6 h",0.474 µg/mL
same,Replicate 2,"receptor fluid, timepoint 6 h",0.309 µg/mL
same,Replicate 3,"receptor fluid, timepoint 6 h",0.166 µg/mL
same,amount in receptor fluid after 6 h (%),,31.7 ± 12.6%
same,amount on/in skin (%),,16.1 ± 3.0%
same,recovery (%),,47.7 ± 15.6%
"c1cc(CC2CO2)ccc1CO[C@H]1CO[C@H]2[C@@H]1OC[C@H]2OCc1ccc(CC2CO2)cc1 (stereo partly drawn) [Compound 3, (3R,3aR,6S,6aR)-3,6-O-Bis[4-(3,4-epoxypropyl)benzyl]-1,4:3,6-dianhydro-D-glucitol]",permeation of epidermis,,observed
same,Average (µM),[1],0.0736 µM
same,Average (µg/ml),[1],0.0323 µg/mL
same,Replicate 1,[1],0.0650 µg/mL
same,Replicate 2,[1],0.000965 µg/mL
same,Replicate 3,[1],0.0309 µg/mL
same,"recovery at 6 h, 0.1 mg/mL",,25%
same,Average (µM),"receptor fluid, timepoint 0 h",0 µM
same,Average (µg/ml),"receptor fluid, timepoint 0 h",0 µg/mL
same,Replicate 1 (µg/ml),"receptor fluid, timepoint 0 h",< LOQ
same,Replicate 2 (µg/ml),"receptor fluid, timepoint 0 h",< LOQ
same,Replicate 3 (µg/ml),"receptor fluid, timepoint 0 h",< LOQ
same,Average (µM),"receptor fluid, timepoint 1 h",0.187 µM
same,Average (µg/ml),"receptor fluid, timepoint 1 h",0.0818 µg/mL
same,Replicate 1,"receptor fluid, timepoint 1 h",0.0897 µg/mL
same,Replicate 2,"receptor fluid, timepoint 1 h",0.110 µg/mL
same,Replicate 3,"receptor fluid, timepoint 1 h",0.0460 µg/mL
same,Average (µM),"receptor fluid, timepoint 2 h",0.465 µM
same,Average (µg/ml),"receptor fluid, timepoint 2 h",0.204 µg/mL
same,Replicate 1,"receptor fluid, timepoint 2 h",0.139 µg/mL
same,Replicate 2,"receptor fluid, timepoint 2 h",0.292 µg/mL
same,Replicate 3,"receptor fluid, timepoint 2 h",0.180 µg/mL
same,Average (µM),"receptor fluid, timepoint 3 h",0.563 µM
same,Average (µg/ml),"receptor fluid, timepoint 3 h",0.247 µg/mL
same,Replicate 1,"receptor fluid, timepoint 3 h",0.191 µg/mL
same,Replicate 2,"receptor fluid, timepoint 3 h",0.347 µg/mL
same,Replicate 3,"receptor fluid, timepoint 3 h",0.203 µg/mL
same,Average (µM),"receptor fluid, timepoint 4 h",0.542 µM
same,Average (µg/ml),"receptor fluid, timepoint 4 h",0.238 µg/mL
same,Replicate 1,"receptor fluid, timepoint 4 h",0.202 µg/mL
same,Replicate 2,"receptor fluid, timepoint 4 h",0.309 µg/mL
same,Replicate 3,"receptor fluid, timepoint 4 h",0.203 µg/mL
same,Average (µM),"receptor fluid, timepoint 5 h",0.539 µM
same,Average (µg/ml),"receptor fluid, timepoint 5 h",0.236 µg/mL
same,Replicate 1,"receptor fluid, timepoint 5 h",0.204 µg/mL
same,Replicate 2,"receptor fluid, timepoint 5 h",0.306 µg/mL
same,Replicate 3,"receptor fluid, timepoint 5 h",0.198 µg/mL
same,Average (µM),"receptor fluid, timepoint 6 h",0.495 µM
same,Average (µg/ml),"receptor fluid, timepoint 6 h",0.217 µg/mL
same,Replicate 1,"receptor fluid, timepoint 6 h",0.165 µg/mL
same,Replicate 2,"receptor fluid, timepoint 6 h",0.298 µg/mL
same,Replicate 3,"receptor fluid, timepoint 6 h",0.189 µg/mL
same,amount in receptor fluid after 6 h (%),,21.7 ± 5.8%
same,amount on/in skin (%),,3.2 ± 2.6%
same,recovery (%),,24.9 ± 8.4%
